B1: mouse MR1-rRL-6-CH2OH tetramers: tetramers from mouse wild-type MR1-rRL-6-CH2OH (C-terminal cysteine) (protein, UniProt Q8HWB0 19-341; P01887 21-119, looked up)
Major histocompatibility …: RTHSLRYFRLAVSDPGPVVPEFISVGYVDSHPITTYDSVTRQKEPKAPWMAENLAPDHWERYTQLLRGWQQTFKAELRHLQRHYNHSGLHTYQRMIGCELLEDGSTTGFLQYAYDGQDFIIFNKDTLSWLAMDYVAHITKQAWEANLHELQYQKNWLEEECIAWLKRFLEYGRDTLERTEHPVVRTTRKETFPGITTFFCRAHGFYPPEISMTWMKNGEEIAQEVDYGGVLPSGDGTYQTWLSVNLDPQSNDVYSCHVEHCGRQMVLEAPRESGDILRVSTISGTTILIIALAGVGVLIWRRSQELKEVMYQPTQVNEGSSPS
Beta-2-microglobulin: IQKTPQIQVYSRHPPENGKPNILNCYVTQFHPPHIEIQMLKNGKKIPKVEMSDMSFSKDWSFYILAHTEFTPTETDTYACRVKHASMAEPKTVYWDRDM
modifications: rRL-6-CH2OH ligand; C-terminal cysteine; tetramer

What was measured:
MR1 = target: T1, MR1 (Homo sapiens, UniProt Q95460); assay: Refolding of denatured MR1 and β2m with ligands; format: binding; conditions: substance added to MR1/β2m refold
T1 construct: soluble human MR1 (residues 1-270 of the mature, leaderless protein); made in house
Procedure: Genes encoding soluble human MR1 (residues 1-270 of the mature, leaderless protein, lacking the transmembrane and cytoplasmic domains); or human β2m (mature, leaderless protein) were expressed for four hours in BL21 E. coli following induction with 1 mM isopropyl β-D-1-thiogalactopyranoside. E. coli were pelleted and resuspended in a buffer containing 50 mM Tris, 25% (w/v) sucrose, 1 mM EDTA, 10 mM DTT pH 8.0. Inclusion body protein was then extracted by lysis of bacteria in a buffer containing 50 mM Tris pH 8.0, 1% (w/v) Triton X-100, 1% (w/v) sodium deoxycholate, 100 mM NaCl, 10 mM DTT, 5 mM MgCl2, and 1 mg DnaseI per liter of starting culture; and subsequent steps involved homogenization with a polytron homogenizer, centrifugation, and washing inclusion body protein sequentially with firstly a buffer containing 50 mM Tris pH 8, […], 100 mM NaCl, 1 mM EDTA, 1 mM DTT, and secondly a buffer containing 50 mM Tris pH 8.0, 1 mM EDTA, 1 mM DTT. Inclusion body protein was then resuspended in a buffer containing 20 mM Tris pH 8.0, 8 M urea, 0.5 mM EDTA, 1 mM DTT, and following centrifugation the supernatant containing solubilized, denatured inclusion body protein was collected and stored at −80° C.
2 mg of 6-formyl pterin, 56 mg of denatured inclusion body MR1 protein, and 28 mg of β2m protein were added to a 400 ml refold buffer solution containing 0.1 M Tris pH 8.5, 2 mM EDTA, 0.4 M arginine, 0.5 mM oxidized glutathione, 5 mM reduced glutathione. Variably, 5M urea was either present or absent. Following an overnight incubation at 4° C., the refold buffer was dialysed against 3 changes of buffer containing 10 mM Tris, pH8.0 over a period of 24 hours. Refolded MR1-β2m-ligand complex was then purified by sequential DEAE (GE Healthcare) anion exchange, S75 16/60 (GE Healthcare) gel filtration, and MonoQ (GE Healthcare) anion exchange chromatography.

Jurkat.LC13 line = assay: Activation of control Jurkat.LC13 line in the presence of C1R.HLA-B8 cells; format: cell-based, human
Description: Next, to formally establish whether 7-hydroxy-6-methyl-8-ribityl lumazine and/or its precursor, 6,7-dimethyl-8-ribityl lumazine, could activate MAIT cells, both compounds were chemically synthesized their ability to enable MR1 refolding and to activate Jurkat.MAIT cells and human MAIT cells from peripheral blood tested. […] Thus, direct precursors of riboflavin biosynthesis activate MAIT cells.

Jurkat.MAIT cells = assay: Activation of Jurkat.MAIT cells (CD69) with C1R antigen presenting cells expressing MR1; format: cell-based, human
Procedure: Jurkat cells transduced with a MAIT TCR comprising the TRAV1-2+TRAJ33 invariant α chain, and a TRBV6-1 β chain were tested for activation by addition of Salmonella supernatant to C1R antigen presenting cells expressing MR1 for 16 hours. Jurkat.MAIT cells were subsequently stained with PE-conjugated anti-CD3, and APC-conjugated anti-CD69 antibodies before analysis by flow cytometry. Activation of Jurkat.MAIT cells was measured by an increase in surface CD69 expression. Compounds to be tested for the ability to activate Jurkat.MAIT cells were tested alongside Salmonella supernatant.
A biological assay for the activation of MAIT T cell receptor (TCR)-expressing T cell lines (into which genes encoding the MAIT TCR alpha and beta chains had been introduced), by antigen presenting cells (expressing MR1 on the cell surface) infected with the bacterium Salmonella typhimurium has been established. This assay measures the increase in expression of the cell surface activation marker, CD69, upon activation of MAIT T cells.

[1] = test system: human MAIT cells from peripheral blood; assay: Activation of primary MAIT cells from PBMCs (CD69, IFN-γ, TNF-α); format: cell-based; conditions: PBMCs with C1R cells expressing MR1
Procedure: PBMCs from a healthy donor were mixed with C1R-huMR1 cells (10^5 each/well). Salmonella SL1344 supernatant (2 μl) from cultures grown in LB supplemented with 25 μg/ml streptomycin (Sigma) for 4 hr at 37° C., or compounds (35A, 36A, 48G: 25 μg/ml final, A-6FP: 10 μM final) or PMA (2 ng/ml+ionomycin (1 ng/ml) added in a total volume of 220 μl RF-10, and incubated overnight at 37° C. Cells were stained with anti-CD3-PE-Cy7 (eBioscience, 20 μg/ml), anti-CD4-APC-Cy7 (Biolegend, 1.7 μg/ml), anti-CD161-APC (Miltenyi Biotec, 1:50), FITC-conjugated D5 (anti-MAIT TCR, 10 μg/ml) and either anti-CD69-PE (BD Biosciences 1:50), anti-IFNγ-PE (BD Pharmingen 10 μg/ml) or anti-TNFα-PE (BD Pharmingen 10 μg/ml), and analyzed by flow cytometry using a Canto II cytometer and Diva software. For intracellular cytokine staining, brefeldin A (10 μg/ml) was added to the assay after the first 1 hr and the incubation allowed to proceed overnight. Cells were fixed with 1% parformaldehyde after staining for surface markers and permeabilised with 1% saponin during cytokine stains. MAIT cells were defined as CD3^+, CD4^−, CD161^+, D5^+ after gating on PBMCs using FSC and SSC.
PBMCs from a healthy donor were mixed with C1R cells expressing MR1 (10^5 each/well). Salmonella SL1344 supernatant (2 μl) from cultures grown in LB supplemented with 25 μg/ml streptomycin (Sigma) for 4 hr at 37° C., or compounds (RL-6,7-diMe, RL-6-Me-7-OH, 6FP: 76.2 μM final, rRL-6-HM: 0.152 μM final) or PMA (2 ng/ml+ionomycin (1 ng/ml) added in a total volume of 220 μl RF-10, and incubated overnight at 37° C. Cells were stained with anti-CD3-PE-Cy7 (eBioscience, 20 μg/ml), anti-CD4-APC-Cy7 (Biolegend, 1.7 μg/ml), anti-CD161-APC (Miltenyi Biotec, 1:50), FITC-conjugated D5 (anti-MAIT TCR, 10 μg/ml) and either anti-CD69-PE (BD Biosciences 1:50), anti-IFNγ-PE (BD Pharmingen 10 μg/ml) or anti-TNFα-PE (BD Pharmingen 10 μg/ml), and analyzed by flow cytometry using a Canto II cytometer and Diva software. […] CD69 expression was analysed by flow cytometry. […]

[2] = test system: Jurkat cells expressing a conventional T cell receptor; assay: Control: inhibition of activation of Jurkat cells expressing a conventional T cell receptor by viral peptide-classical class I complexes; format: cell-based, human; conditions: antigen presenting cells displaying viral peptide-classical class I complexes
Description: Thus, 6-formyl pterin has been identified as a potential antagonist compound, capable of blocking activation of MAIT cells by bacterial activating ligands.

MAIT TCR-BW hybridomas = assay: MR1 tetramer staining of MAIT TCR-BW hybridomas; format: cell-based; conditions: hybridomas from mouse Vα19iTG splenocytes fused with BW cell line
Description: (§1) Wild-type human MR1 containing a C-terminal cysteine can be refolded with the addition of 5-amino-6-D-ribitylamino-uracil and pyruvaldehyde, using the standard refolding conditions described above, and then purified using the standard methods also described above. MR1 refolded in this way has rRL-6-CH2OH bound as determined by X-ray crystallography structural studies, and by electrospray ionization time-of-flight (ESI TOF) mass spectrometry. […] Excess biotin is removed by passing biotinylated protein through an S200 10/300 GL (Healthcare) gel filtration column in Tris buffered saline (pH 8.0), prior to formation of tetramers by addition to PE Streptavidin (#554061, BD Pharmingen). […] In the same manner human MR1 containing a C-terminal cysteine can be refolded with the addition of 5-amino-6-D-ribitylamino-uracil, and subsequently purified by fast protein liquid chromatography (FPLC) to yield MR1 refolded with a novel ribityllumazine metabolite, reduced 7-hydroxy-ribityllumazine (rRL-7-OH). The identity of rRL-7-OH bound to MR1 was confirmed by ESI TOF mass spectrometry, and by determining its structure using X-ray crystallography. The identity of rRL-7-OH bound to MR1 was also confirmed by refolding wild-type MR1 with 5-amino-6-D-ribitylamino-uracil and ^13C-glycolaldehyde to yield MR1-^13C-rRL-7-OH.

control BW cells = assay: MR1 tetramer staining of control BW cells; format: cell-based, mouse
Description: as §1

T1 sequence (Q95460 23-292): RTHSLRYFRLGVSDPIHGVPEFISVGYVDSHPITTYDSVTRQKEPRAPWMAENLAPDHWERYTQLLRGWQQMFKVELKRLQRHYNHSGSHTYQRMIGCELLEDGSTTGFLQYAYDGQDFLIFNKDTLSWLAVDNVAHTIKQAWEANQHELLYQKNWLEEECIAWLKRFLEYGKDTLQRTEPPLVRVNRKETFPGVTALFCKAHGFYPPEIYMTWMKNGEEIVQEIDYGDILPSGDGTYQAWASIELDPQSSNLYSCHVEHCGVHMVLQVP
T1 sequence (P61769 21-119 partner): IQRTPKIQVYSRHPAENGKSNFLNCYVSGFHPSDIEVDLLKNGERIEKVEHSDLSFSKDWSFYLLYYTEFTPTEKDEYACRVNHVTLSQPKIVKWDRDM

Molecule	Ability to refold MR1 into native MR1-β2m complex (MR1)	Activation of control Jurkat.LC13 line (Jurkat.LC13 line)	Activation of Jurkat.MAIT cells (increase in surface CD69) (Jurkat.MAIT cells)	Activation of MAIT cells (CD69 upregulation, intracellular IFN-γ and TNF-α) [1]	Inhibitory effect on activation of Jurkat cells expressing a conventional T cell receptor [2]	Tetramer staining of MAIT TCR-BW hybridomas (MAIT TCR-BW hybridomas)	Tetramer staining of control BW cells (control BW cells)
Cc1nc2c(=O)[nH]c(=O)nc-2n(C[C@H](O)[C@H](O)[C@H](O)CO)c1O [Compound 2, 7-hydroxy-6-methyl-8-D-ribityllumazine]	could be refolded with MR1	failed to activate	activated	specifically activated			
Nc1nc2ncc(C=O)nc2c(=O)[nH]1 [Compound 6-FP, 6-formyl pterin, reference compound]	indistinguishable from MR1 refolded with folic acid		did not activate	did not activate	no inhibitory effect		
B1						stain	not

Source: US10011602B2, “Immunological reagents and uses therefor” (THE UNIVERSITY OF MELBOURNE, priority 2012, dated 2018)
